Here are results for 23 compounds from patent US20240025906A1 (NEURON23, INC., priority 2022, published 2024).

This assay concerns JAK1/TYK2 pSTAT5 (Tyr694/699) in THP-1 cell line. The assay can be described thus: IFNa-stimulated JAK1/TYK2 pSTAT5 (Tyr694/699) inhibition cellular assay, AlphaLISA. The class given is cell-based. The note with it: THP-1 cells, AlphaLISA (Assay B). On the procedure: Assay B: JAK1/TYK2 pSTAT5 (Tyr694/699) inhibition IC50 Cellular Assays
To evaluate the inhibition effect of compounds disclosed herein against TYK2, an IFNa-stimulated JAE1/TYK2 pSTAT5 (Tyr694/699) quantification assay was conducted in the THP-1 cell line using an AlphaLISA detection method (PerkinElmer ALSU-PST5). Compounds in DMSO were serially diluted in a 96-well plate (10 mM starting concentration, 6-fold dilutions, 8 concentrations total) prior to dispensing of 8 nL into a 384-well plate using an I.DOT non-contact liquid handler (Dispendix). Cells were collected via centrifugation at 300 ref for 5 min and resuspended in Hanks' Balanced Salt Solution (Gibco 14175-079), and 6 μl containing 2e4 cells was dispensed into each well of the 384-well plate containing test compounds or DMSO alone (final concentrations: 10000, 1666.67, 277.78, 46.30, 7.72, 1.29, 0.21 and 0.04 nM). Cells were then incubated for 1 h at 37° C. with 5% CO2 prior to the addition of 2 μL IFNa (100 ng/mL; PBL Assay Science 11175-1). Following an additional 30 min incubation at 37° C. with 5% CO2, 2 μL of 5× lysis buffer was added to each well using the I.DOT […]. Plates were sealed and incubated at RT for 10 min on a plate shaker set to 400 RPM. Cell lysates were then frozen at −80° C. before subsequent detection of pSTAT5 by AlphaLISA. At the time of the detection assay, cell lysates were thawed for 5 min at room temperature and then on a plate shaker set to 400 RPM for an additional 10 min. Following the manufacturer recommended protocol (Perkin Elmer), 5 μL of acceptor bead master mix was added to each well; plates were then resealed and incubated for 2 min at RT on a plate shaker (400 rpm) prior to an additional 2-h incubation without agitation (protected from light). Donor bead master mix, 5 uL per well, was then added to each well before 2 min of shaking (RT, 400 rpm) and 2-h incubation (RT, no shaking, protected from light). Levels of pSTAT5 protein were then measured as fluorescent signal at 615 nm with an EnVision multimode plate reader (Perkin Elmer). IC50 values were calculated in Dotmatics using the four-parameter logistic curve regression model with bottom fixed to 0 and Hill Slope fixed to −1.
On the technique in general: Alpha assays give light when donor and acceptor beads are brought close together.

Setting [1] is: Homo sapiens, IFNa-stimulated, read-out: Cellular_THP1_IFNa-pSTATS_TYK2.
Where [2] appears, read: Homo sapiens, IFNa-stimulated pSTAT5 (Tyr694/699), read-out: Cellular_THP1_IFNa-pSTATS_TYK2.

The structures appear in SMILES notation. pIC50: −log10 of the molar value. Read-outs that look alike come from different tables or passages of the source. Some results are limits rather than exact numbers.

Regarding `CNc1ncc(/C=C/c2ccccc2OC)c2cc(NC(=O)C3CC3)ncc12` [Example 174, (E)-N-(5-(2-methoxystyryl)-8-(methylamino)-2,7-naphthyridin-3-yl)cyclopropanecarboxamide], the pIC50 (Homo sapiens, IFNa-stimulated, read-out: Cellular THP1_IFNa-pSTATS_IC50) is no less than 6.30.

Turning to `CNc1ncc(-c2nc3cnc(C(F)F)cc3o2)c2cc(NC(=O)C3CC3)ncc12` [Example 461, N-(5-(6-(difluoromethyl)oxazolo[4,5-c]pyridin-2-yl)-8-(methylamino)-2,7-naphthyridin-3-yl)cyclopropanecarboxamide], the pIC50 under setting [1] was no less than 6.30.

As for `CNc1ncc(-c2nc3cc(-c4ncnn4C)ccc3o2)c2cc(NC(=O)C3CC3)ncc12` [Example 465], the pIC50 (IFNa-stimulated, read-out: Cellular_THP1_IFNa-pSTATS_TYK2) is no less than 6.30.

`CCNc1ncc(-c2nc3cc(N4CC5CNCC(C4)O5)ccc3o2)c2cc(NC(=O)C3CC3)ncc12` [Example 466, N-(5-(5-(9-oxa-3,7-diazabicyclo[3.3.1]nonan-3-yl)benzo[d]oxazol-2-yl)-8-(ethylamino)-2,7-naphthyridin-3-yl)cyclopropanecarboxamide]: the pIC50 under setting [1] is no less than 6.30.

As for `CNc1ncc(-c2cc3ccc(N4CCO[C@@H](C)C4)cn3n2)c2cc(NC(=O)C3CC3)ncc12` [Example 797, (S)—N-(8-(methylamino)-5-(6-(2-methylmorpholino)pyrazolo[1,5-a]pyridin-2-yl)-2,7-naphthyridin-3-yl)cyclopropanecarboxamide], the pIC50 under setting [1] was no less than 6.30.

Regarding `CNc1ncc(C#Cc2ccc(C(C)(C)O)cc2)c2cc(NC(=O)C3CC3)ncc12` [Example 802, N-(5-((4-(2-hydroxypropan-2-yl)phenyl)ethynyl)-8-(methylamino)-2,7-naphthyridin-3-yl)cyclopropanecarboxamide], the pIC50 under setting [1] was no less than 6.30.

`CNc1ncc(C#Cc2ccc3c(c2)CC(=O)N3C)c2cc(NC(=O)C3CC3)ncc12` [Example 803, N-(5-((1-methyl-2-oxoindolin-5-yl)ethynyl)-8-(methylamino)-2,7-naphthyridin-3-yl)cyclopropanecarboxamide]: under setting [1], the pIC50 is no less than 6.30.

Turning to `CNc1ncc(C#Cc2ccc3nc(CF)n(C)c3c2)c2cc(NC(=O)C3CC3)ncc12` [Example 810, N-(5-((2-(fluoromethyl)-1-methyl-1H-benzo[d]imidazol-6-yl)ethynyl)-8-(methylamino)-2,7-naphthyridin-3-yl)cyclopropanecarboxamide], the pIC50 under setting [1] is no less than 6.30.

On to `CNc1ncc(C#Cc2ccc(CN3CCO[C@@H](C)C3)cc2)c2cc(NC(=O)C3CC3)ncc12` [Example 814, (S)—N-(8-(methylamino)-5-((4-((2-methylmorpholino)methyl)phenyl)ethynyl)-2,7-naphthyridin-3-yl)cyclopropanecarboxamide], for which the pIC50 under setting [1] was no less than 6.30.

As for `CNc1ncc(-c2nc3cc(N4CCO[C@@H](C)C4)ccc3o2)c2cc(NC(=O)[C@H]3C[C@H]3C)nnc12` [Example 891, (1S,2R)-2-methyl-N-(8-(methylamino)-5-(5-((S)-2-methylmorpholino)benzo[d]oxazol-2-yl)pyrido[3,4-c]pyridazin-3-yl)cyclopropane-1-carboxamide], the pIC50 under setting [1] was no less than 6.30.

Consider `CNc1ncc(-c2nc3ccc(N4CCOCC4)cn3n2)c2cc(Nc3ccccn3)nnc12` [Example 892, N^8-methyl-5-(6-morpholino-[1,2,4]triazolo[1,5-a]pyridin-2-yl)-N^3-(pyridin-2-yl)pyrido[3,4-c]pyridazine-3,8-diamine], for which the pIC50 under setting [1] is no less than 6.30.

On to `CNc1ncc(C#Cc2ccc(CN3CCC3)cn2)c2cc(NC(=O)C3CC3)ncc12` [Example 905, N-(5-((5-(azetidin-1-ylmethyl)pyridin-2-yl)ethynyl)-8-(methylamino)-2,7-naphthyridin-3-yl)cyclopropanecarboxamide], for which the pIC50 under setting [1] is no less than 6.30.

In the case of `CNc1ncc(C#Cc2ccc(CN3CC(F)(F)C3)cn2)c2cc(NC(=O)C3CC3)ncc12` [Example 906, N-(5-((5-((3,3-difluoroazetidin-1-yl)methyl)pyridin-2-yl)ethynyl)-8-(methylamino)-2,7-naphthyridin-3-yl)cyclopropanecarboxamide], under setting [1], the pIC50 was no less than 6.30.

For `CNc1ncc(C#Cc2ccc(Cn3cccn3)cn2)c2cc(NC(=O)C3CC3)ncc12` [Example 907, N-(5-((5-((1H-pyrazol-1-yl)methyl)pyridin-2-yl)ethynyl)-8-(methylamino)-2,7-naphthyridin-3-yl)cyclopropanecarboxamide], under setting [1], the pIC50 was no less than 6.30.

On to `CNc1ncc(C#Cc2ccc(Cn3nccn3)cn2)c2cc(NC(=O)C3CC3)ncc12` [Example 908, N-(5-((5-((2H-1,2,3-triazol-2-yl)methyl)pyridin-2-yl)ethynyl)-8-(methylamino)-2,7-naphthyridin-3-yl)cyclopropanecarboxamide], for which the pIC50 under setting [1] was no less than 6.30.

On to `CNc1ncc(C#Cc2ccc(Cn3ccnn3)cn2)c2cc(NC(=O)C3CC3)ncc12` [Example 909, N-(5-((5-((1H-1,2,3-triazol-1-yl)methyl)pyridin-2-yl)ethynyl)-8-(methylamino)-2,7-naphthyridin-3-yl)cyclopropanecarboxamide], for which, under setting [1], the pIC50 was no less than 6.30.

`CNc1ncc(C#Cc2ccc(C(C)(C)C#N)cc2)c2cc(NC(=O)C3CC3)ncc12` [Example 910, N-(5-((4-(2-cyanopropan-2-yl)phenyl)ethynyl)-8-(methylamino)-2,7-naphthyridin-3-yl)cyclopropanecarboxamide]: the pIC50 under setting [1] was no less than 6.30.

Consider `CNc1ncc(C#Cc2ccc(CC#N)cn2)c2cc(NC(=O)C3CC3)ncc12` [Example 911, N-(5-((5-(cyanomethyl)pyridin-2-yl)ethynyl)-8-(methylamino)-2,7-naphthyridin-3-yl)cyclopropanecarboxamide], for which the pIC50 under setting [1] was no less than 6.30.

As for `CNc1ncc(C#Cc2ccc(CN3CC(OC)C3)cn2)c2cc(NC(=O)C3CC3)ncc12` [Example 912, N-(5-((5-((3-methoxyazetidin-1-yl)methyl)pyridin-2-yl)ethynyl)-8-(methylamino)-2,7-naphthyridin-3-yl)cyclopropanecarboxamide], under setting [1], the pIC50 is no less than 6.30.

As to `CNc1ncc(-c2nc3ncc(C)cc3o2)c2cc(NC(=O)C3CC3)ncc12` [Example 1104, N-(8-(methylamino)-5-(6-methyloxazolo[4,5-b]pyridin-2-yl)-2,7-naphthyridin-3-yl)cyclopropanecarboxamide], the pIC50 under setting [2] was no less than 6.30.

Turning to `CNc1ncc(C#Cc2nccc3cc(F)ccc23)c2cc(NC(=O)C3CC3)ncc12` [Example 1135, N-(5-((6-fluoroisoquinolin-1-yl)ethynyl)-8-(methylamino)-2,7-naphthyridin-3-yl)cyclopropanecarboxamide], under setting [2], the pIC50 was no less than 6.30.

Take `CNc1ncc(C#Cc2ccc3c(=O)n(C)ccc3c2)c2cc(NC(=O)C3CC3)ncc12` [Example 1136, N-(5-((2-methyl-1-oxo-1,2-dihydroisoquinolin-6-yl)ethynyl)-8-(methylamino)-2,7-naphthyridin-3-yl)cyclopropanecarboxamide]: the pIC50 under setting [2] was no less than 6.30.

In the case of `CNc1ncc(C#Cc2cccc3c2CNCC3)c2cc(NC(=O)C3CC3)ncc12` [Example 1137, N-(8-(methylamino)-5-((1,2,3,4-tetrahydroisoquinolin-8-yl)ethynyl)-2,7-naphthyridin-3-yl)cyclopropanecarboxamide], the pIC50 under setting [2] was less than 6.30.
